Experiments:
[1] = biological target: T1, thymidylate synthase (TS) (Mus musculus, UniProt P07607); test: inhibition of isolated mouse TS activity at […] (R,S)-5,10-CH2FH4; type: biochemical
T1 construct: gene Tyms; enzyme partially purified from the L1210:C15 TS-overproducing cell line

[2] = biological target: T1, thymidylate synthase (TS); test: inhibition of isolated mouse TS activity and inhibition kinetics (IC50 […], Kies […]); type: biochemical

T1 sequence (P07607 whole entry): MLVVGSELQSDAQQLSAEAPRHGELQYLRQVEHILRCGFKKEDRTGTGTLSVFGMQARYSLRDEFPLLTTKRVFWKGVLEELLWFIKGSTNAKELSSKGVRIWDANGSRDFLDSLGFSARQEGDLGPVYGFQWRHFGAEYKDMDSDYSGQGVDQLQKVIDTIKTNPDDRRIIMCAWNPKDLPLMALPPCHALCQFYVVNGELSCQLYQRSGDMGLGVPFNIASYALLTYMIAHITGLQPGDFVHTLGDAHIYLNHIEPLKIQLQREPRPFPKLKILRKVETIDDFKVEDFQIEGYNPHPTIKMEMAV

| SMILES | IC50 [1] [nM] | Ki [2] [nM] |
| --- | --- | --- |
| C#CCN(Cc1cc2c(=O)[nH]c(C)nc2cc1Br)c1ccc(C(=O)NCc2ccncc2)cc1 [CB300189] | 250 | – |
| C#CCN(Cc1cc2c(=O)[nH]c(C)nc2cc1Br)c1ccc(C(=O)NCc2ccccn2)cc1 [CB300179] | – | 160 |

Reference: PMC2362793, “A novel class of lipophilic quinazoline-based folic acid analogues: cytotoxic agents with a folate-independent locus” (British Journal of Cancer, 1999)
